Source: patent publication US20190169140A1, “IDO1 INHIBITOR AND PREPARATION METHOD AND APPLICATION THEREOF” (SHANDONG LUYE PHARMACEUTICAL CO., LTD., priority 2016, published 2019)
In brackets after ≈: the same amount, converted by molar mass. Read-outs that look alike come from different tables or passages of the source.

How the values were obtained:
[1] = Measurement of thermodynamic solubility; format: physicochemical; conditions: aqueous buffer, thermodynamic from solid, room temperature
Procedure: II. Measurement of Thermodynamic Solubility
1. Solutions for Thermodynamic Solubility
Buffer A (pH 2.0): 50 mM phosphate buffer, with a pH value of 2.0.
Buffer B (pH 7.4): 50 mM phosphate buffer, with a pH value of 7.4.
50% acetonitrile solution and 50% buffer (A, B) were mixed together to obtain a diluent. 10 mM (20 μL/compound) stock solution was added to acetonitrile (480 μL/compound), and mixed with the buffer (A, B) (500 μL/compound) to obtain 200 μM UV detection standard solution. The 200 μM UV detection standard solution was diluted with the diluent 10 times or 200 times the amount of the standard solution, so as to acquire 20 μM or 1 μM UV standard solution. 1, 20, and 200 μM UV standard solutions were taken as standard samples for thermodynamic solubility test.
No less than 2 mg of a sample powder was weighed and placed in a Whatman miniuniprep vial. If it was required to test the thermodynamic solubility of the sample in multiple buffers (A, B), an independent vial was demanded for each test. 450 μL of the buffer (A, B) was respectively added to each Whatman miniuniprep vial. After the buffer was added, a piston cover of the Whatman miniuniprep functioning to filter was put on and pressed above a liquid surface, such that a filter screen was in contact with the buffer (A, B) during the shaking. The solubility sample was shaken in a vortex manner for 1 minute, and phenomenon of the solution was recorded. The sample was shaken at 600 rpm at a room temperature (approximately 22˜25° C.) for 24 hours. The filtering cover of Whatman Miniunipreps was pressed to a bottom, to obtain a filtrate of the sample solubility solution. All sample vials should be recorded for insoluble substances before and after the filtration and leakage phenomenon thereof. The buffer (A, B) was 50-fold diluted to obtain a sample diluent.
3 UV standard solutions, from low concentration to high concentration, were injected into HPLC, and then the diluent and the supernatant of the compound to be tested were injected. The sample to be tested was in duplicate. Integration was carried out for UV chromatographic peaks. A standard curve was established by simulation and the thermodynamic solubility of the sample was calculated. HPLC conditions were as follows.

[2] = biological target: T1, CYP2C9 (Homo sapiens, UniProt P11712); assay: Inhibition on human liver microsome CYP2C9; format: in vitro ADME; conditions: human liver microsomes; for IC50: 5-in-1 probe substrate
T1 construct: tissue Corning Inc. or XenoTech, LLC. or other suppliers; host or cells: mixed human liver microsomes
T1 sequence (P11712 whole entry): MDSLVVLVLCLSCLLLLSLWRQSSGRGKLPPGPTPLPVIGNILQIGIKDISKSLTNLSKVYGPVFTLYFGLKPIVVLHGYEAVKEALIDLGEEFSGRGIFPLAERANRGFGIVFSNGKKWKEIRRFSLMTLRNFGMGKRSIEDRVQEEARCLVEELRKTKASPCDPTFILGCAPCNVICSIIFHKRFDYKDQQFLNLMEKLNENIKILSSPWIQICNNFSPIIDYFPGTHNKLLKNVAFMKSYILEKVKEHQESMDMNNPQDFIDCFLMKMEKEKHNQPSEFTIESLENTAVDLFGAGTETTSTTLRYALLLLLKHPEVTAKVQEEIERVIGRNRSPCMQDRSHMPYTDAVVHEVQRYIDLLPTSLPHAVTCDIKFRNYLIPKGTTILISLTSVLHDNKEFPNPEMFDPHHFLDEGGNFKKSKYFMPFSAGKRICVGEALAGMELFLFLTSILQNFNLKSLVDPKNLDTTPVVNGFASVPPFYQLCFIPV
Procedure: (§1) The research project aimed at evaluating inhibitory ability of a sample for test on human liver microsome cytochrome P450 isozymes (CYP1A2, CYP2C9, CYP2C19, CYP2D6, and CYP3A4) with use of a 5-in-1 probe substrate for CYP isozymes.
(§2) Mixed human liver microsomes (HLM) were purchased from Corning Inc. (Steuben, N.Y., USA) or XenoTech, LLC. (Lenexa, Kans., USA) or other suppliers, and stored in a condition below −70° C. before use.
(§3) Diluted working solutions of the sample for test in serial concentrations were added to an incubation system containing the human liver microsomes, probe substrate, and accessory factors of a cycling system, and a control containing no sample for test but a solvent was taken as a control for enzymatic activity (100%). Concentration of metabolites generated by the probe substrate in the sample was measured with a method of liquid chromatography-tandem mass spectrometry (LC-MS/MS). Nonlinear regression analysis of mean percentage activity vs concentration of the sample for test was carried out using SigmaPlot (V.11). An IC^50 value was calculated through a three-parameter or four-parameter inflection logarithmic equation.

[3] = biological target: T2, CYP2D6 (Homo sapiens, UniProt P10635); assay: Inhibition on human liver microsome CYP2D6; format: in vitro ADME; conditions: human liver microsomes; for IC50: 5-in-1 probe substrate
T2 construct: tissue Corning Inc. or XenoTech, LLC. or other suppliers; host or cells: mixed human liver microsomes
T2 sequence (P10635 whole entry): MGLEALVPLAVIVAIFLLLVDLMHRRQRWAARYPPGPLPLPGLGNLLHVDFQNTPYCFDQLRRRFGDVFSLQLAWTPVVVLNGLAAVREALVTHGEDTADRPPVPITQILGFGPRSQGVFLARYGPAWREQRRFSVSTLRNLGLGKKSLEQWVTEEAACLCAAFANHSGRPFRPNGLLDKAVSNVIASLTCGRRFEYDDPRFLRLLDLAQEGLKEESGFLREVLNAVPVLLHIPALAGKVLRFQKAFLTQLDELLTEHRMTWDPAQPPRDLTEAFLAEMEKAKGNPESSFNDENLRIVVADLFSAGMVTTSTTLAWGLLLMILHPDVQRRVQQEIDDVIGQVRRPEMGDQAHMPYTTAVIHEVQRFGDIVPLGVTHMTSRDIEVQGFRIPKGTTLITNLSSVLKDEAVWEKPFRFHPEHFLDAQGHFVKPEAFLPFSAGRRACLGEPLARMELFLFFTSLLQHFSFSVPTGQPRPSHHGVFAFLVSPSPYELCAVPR
Procedure: as §1, §2, §3

[4] = Liver microsome stability, rat; format: in vitro ADME, SD rats; conditions: rat liver microsomes; for CLint scaled: SD, read-out: Intrinsic clearance; for Remaining % (60 min): 37° C.
Procedure: (§4) The purpose of research in the present experiment is assessing phase I metabolic stability of the sample for test in CD-1 mice, SD rats, and human liver microsomes.
(§5) The animals and human liver microsomes used in this test system were purchased from BD Gentest, Xenotech, Corning or BioreclamationIVT, and stored in a refrigerator at −80° C. before use.
(§6) The sample for test and control were incubated together with the microsomes under a condition of 37° C. for 60 minutes, and a cold acetonitrile solution (or other organic solvents) containing an internal standard substance was added at a designated time point to terminate the reaction. After centrifugation, a resultant supernatant was assayed in a semiquantitative manner through liquid chromatography tandem mass spectrometry (LC/MS/MS). Software Analyst (AB Sciex, Framingham, Mass., USA) was used for processing retention time of analyte and internal standard, and achieving chromatogram collection, and chromatogram integration
(§7) An in vitro elimination rate constant ke of the sample was obtained by converting a ratio of the sample to a peak area of the internal standard to remaining percentage, to calculate an in vitro elimination rate and half-life of the sample for test.

[5] = Pharmacokinetics experiment of mice in vivo, single intravenous injection; design: species or system male CD-1 mice; conditions: Mouse PK, IV 1 mg/kg; for AUC(0-inf) / AUC(0-t) / Vd / clearance / half-life: male, CD-1, plasma
Procedure: The present experiment aimed at researching status of pharmacokinetics of a sample for test in plasma of male CD-1 mice after single intravenous injection.
Three animals in an intravenous group were intravenously injected with the sample for test by 1 mg/kg, and a formulation was 0.2 mg/mL settled solution of 5% DMSO/95% (10% HP-β-CD). 5 minutes, 15 minutes, 30 minutes, 1 hour, 2 hours, 4 hours, 6 hours, 8 hours, and 24 hours after the administration, blood was collected and prepared into a plasma specimen, with an anticoagulant of EDTA-K2. Plasma concentration data was obtained by analyzing the specimen through LC-MS/MS.
The plasma drug concentration data was processed with a non-compartment model using WinNonlin™ Version 6.3 (Pharsight, Mountain View, Calif.) pharmacokinetics software. Following pharmacokinetics parameters were calculated using a log-linear trapezoidal method: elimination phase half-life (T1/2), apparent volume of distribution (Vdss), and clearance rate (CL), mean retention time of drug in body from point 0 to end time point (MRT0-last), mean retention time of drug in body from point 0 to infinite time (MRT0-inf), area under a time-plasma concentration curve from point 0 to end time point (AUC0-last), area under a time-plasma concentration curve from point 0 to infinite time (AUC0-inf), and initial concentration (C0).

[6] = Liver microsome stability, mouse; format: in vitro ADME, CD-1 mice; conditions: mouse liver microsomes; for CLint scaled: CD-1, read-out: Intrinsic clearance; for Remaining % (60 min): 37° C.
Procedure: as §4, §5, §6, §7

[7] = biological target: T3, CYP2C19 (Homo sapiens, UniProt P33261); assay: Inhibition on human liver microsome CYP2C19; format: in vitro ADME; conditions: human liver microsomes; for IC50: 5-in-1 probe substrate
T3 construct: tissue Corning Inc. or XenoTech, LLC. or other suppliers; host or cells: mixed human liver microsomes
T3 sequence (P33261 whole entry): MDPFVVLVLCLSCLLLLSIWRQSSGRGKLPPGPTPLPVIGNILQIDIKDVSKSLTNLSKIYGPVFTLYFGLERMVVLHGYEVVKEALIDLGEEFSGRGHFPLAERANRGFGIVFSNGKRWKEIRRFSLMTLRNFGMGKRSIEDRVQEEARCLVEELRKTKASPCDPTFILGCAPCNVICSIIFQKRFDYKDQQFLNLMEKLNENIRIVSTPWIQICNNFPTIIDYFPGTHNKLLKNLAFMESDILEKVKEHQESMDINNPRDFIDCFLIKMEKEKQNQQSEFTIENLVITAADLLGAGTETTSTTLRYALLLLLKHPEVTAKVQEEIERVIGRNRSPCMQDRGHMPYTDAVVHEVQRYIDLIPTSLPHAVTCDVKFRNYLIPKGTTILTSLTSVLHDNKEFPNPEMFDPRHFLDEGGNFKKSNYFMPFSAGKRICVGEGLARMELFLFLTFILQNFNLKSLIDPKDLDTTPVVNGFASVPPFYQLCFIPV
Procedure: as §1, §2, §3

[8] = 50 mM phosphate buffer pH 2.0, 24 hours, read-out: thermodynamic solubility (pH: 2.0)
[9] = 50 mM phosphate buffer pH 7.4, 24 hours, read-out: thermodynamic solubility (pH: 7.4)

Structure (SMILES)	solubility thermodynamic at 24 h [1, 8]	solubility thermodynamic at 24 h [1, 9]	IC50 [2]	IC50 [3]	CLint scaled [4]	metabolic stability in words [4]	Remaining % (60 min) [4]	AUC(0-inf) [5]	AUC(0-t) [5]	Vd [5]	clearance [5]	half-life [5]	CLint scaled [6]	metabolic stability in words [6]	Remaining % (60 min) [6]	inhibiting effect on CYP2C19 in words [7]	IC50 [7]	inhibiting effect on CYP2C9 in words [2]	inhibiting effect on CYP2D6 in words [3]	Conc. (8 h) ([5]; plasma, 8 h)
NS(=O)(=O)NCCOc1nonc1/C(=N/O)Nc1ccc(F)c(Br)c1 [Compound 0015]	138 µM (≈ 60.6 µg/mL)	298 µM (≈ 131 µg/mL)	–	–	–	–	–	–	–	–	–	–	–	–	–	–	–	–	–	–
NS(=O)(=O)NCCSc1nonc1/C(=N/O)Nc1ccc(F)c(Br)c1 [Compound 0117]	2620 µM (≈ 1190 µg/mL)	2610 µM (≈ 1190 µg/mL)	–	–	–	–	–	–	–	–	–	–	–	–	–	–	–	–	–	–
CC(=O)NCCSc1nonc1/C(=N/O)Nc1ccc(F)c(Br)c1 [Compound 0227]	–	–	15.9 µM	26.1 µM	91.9 mL/min/kg	metabolized quickly	21.6%	0.628 µM·h	0.624 µM·h	2.66 L/kg	64.2 mL/min/kg	0.867 h	275 mL/min/kg	metabolized quickly	11.0%	intermediate degree	3.61 µM	–	–	–
NC(=O)NCCSc1nonc1/C(=N/O)Nc1ccc(F)c(Br)c1 [Compound 0231]	155 µM (≈ 65 µg/mL)	125 µM (≈ 52.4 µg/mL)	> 50 µM	> 50 µM	23.7 mL/min/kg	metabolized in a relatively steady manner	64.8%	0.881 µM·h	0.852 µM·h	4.85 L/kg	55.1 mL/min/kg	2.44 h	134 mL/min/kg	metabolized quickly	35.8%	relatively weak effect	36.4 µM	relatively weak effect	relatively weak effect	8.16/ND nM
NS(=O)(=O)NCCNc1nonc1C(=NO)Nc1ccc(F)c(Br)c1 [Compound 360, INCB024360, reference compound]	65 µM (≈ 28.5 µg/mL)	160 µM (≈ 70.1 µg/mL)	–	–	–	–	–	–	–	–	–	–	–	–	–	–	–	–	–	–
